For this assay, the target named is T1, PHD2 (Homo sapiens, UniProt Q9GZT9).
T1 construct: Full length human PHD2 (fused to a MYC/DDK tag at C-terminal); purchased Origene Technology, USA
As to the kind of experiment: MALDI-based inhibition assay for PHD2. Type of assay: biochemical. The conditions noted are these: 19-mer peptide substrate. Here is the method: IC50s were then calculated from the variation in percentage demethylation at different inhibitor concentrations, using nonlinear regression, with normalized dose-response fit on […]
MALDI-based inhibition assays for FTO and ALKBH5
The assay was modified from previously reported method.[5] An 8-mer m6A-ssDNA substrate with the sequence 5’-TCA(m6A)CAGC-3’ (Yale University, W.M. Keck Foundation Biotechnology Resource Laboratory) was used in this inhibition assay. The assay was performed in triplicate for each inhibitor, in a final reaction volume of 25 µL. Reaction consisted of FTO (2 µM) or ALKBH5 (4 µM), 2OG (150 µM), (NH4)2Fe(SO4)2·6H2O (150 µM), L-ascorbate (2 mM), m6A-ssDNA substrate (100 µM), in 50 mM HEPES buffer, pH 7.5, and inhibitor at various concentrations (final DMSO concentration not more than 1% v/v of assay mix). The reaction was incubated at room temperature for 30 min, before 1:1 quenching with 20% v/v formic acid. 1 uL of the diluted assay mixture was then mixed with 1 uL of 3-hydroxpicolinic acid (3-HPA, the MALDI-TOF-MS matrix, Sigma-Aldrich) and spotted onto the MALDI-TOF-MS plate before analysis. The 3-HPA matrix was prepared by mixing 9 parts of 50 mg/mL 3-hydroxpicolinic acid in 50% MeCN/Milli-Q H2O with 1 part of 50 mg/mL ammonium citrate in Milli-Q H2O. […]

This note sets out measurements from paper PMC5424463, “A strategy based on nucleotide specificity leads to a subfamily-selective and cell-active inhibitor of N ^6-methyladenosine demethylase FTO” (Chemical Science, 2014).

T1 sequence (Q9GZT9 whole entry, the tested form may be a part): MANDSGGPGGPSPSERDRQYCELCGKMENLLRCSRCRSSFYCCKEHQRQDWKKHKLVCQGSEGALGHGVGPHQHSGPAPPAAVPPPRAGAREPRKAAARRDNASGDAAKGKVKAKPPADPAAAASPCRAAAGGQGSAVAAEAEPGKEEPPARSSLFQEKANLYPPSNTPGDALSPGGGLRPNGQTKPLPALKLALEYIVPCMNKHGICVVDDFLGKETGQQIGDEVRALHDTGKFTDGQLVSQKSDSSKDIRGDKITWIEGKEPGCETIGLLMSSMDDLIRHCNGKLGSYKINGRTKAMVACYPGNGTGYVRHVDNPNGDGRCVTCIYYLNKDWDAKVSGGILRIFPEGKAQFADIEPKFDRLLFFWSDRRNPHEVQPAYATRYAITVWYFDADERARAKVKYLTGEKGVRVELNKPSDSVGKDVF

In turn, `O=C(O)/C=C/C(=O)NNC(=O)c1cnccc1Cc1ccccc1` [Compound 12] had an IC50 of more than 100 µM.

As a reminder, the IC50 is the concentration that inhibits the measured activity by half. Low values mean greater potency, high ones weaker potency.
